Results on ten molecules are retold here after ChEMBL document CHEMBL5465560, “Selectivity Literature for EUbOPEN Chemogenomic Library” (2024).

Experiment [1] deals with T1, Muscle, skeletal receptor tyrosine-protein kinase (Homo sapiens) (UniProt O15146).
T1 sequence (whole entry): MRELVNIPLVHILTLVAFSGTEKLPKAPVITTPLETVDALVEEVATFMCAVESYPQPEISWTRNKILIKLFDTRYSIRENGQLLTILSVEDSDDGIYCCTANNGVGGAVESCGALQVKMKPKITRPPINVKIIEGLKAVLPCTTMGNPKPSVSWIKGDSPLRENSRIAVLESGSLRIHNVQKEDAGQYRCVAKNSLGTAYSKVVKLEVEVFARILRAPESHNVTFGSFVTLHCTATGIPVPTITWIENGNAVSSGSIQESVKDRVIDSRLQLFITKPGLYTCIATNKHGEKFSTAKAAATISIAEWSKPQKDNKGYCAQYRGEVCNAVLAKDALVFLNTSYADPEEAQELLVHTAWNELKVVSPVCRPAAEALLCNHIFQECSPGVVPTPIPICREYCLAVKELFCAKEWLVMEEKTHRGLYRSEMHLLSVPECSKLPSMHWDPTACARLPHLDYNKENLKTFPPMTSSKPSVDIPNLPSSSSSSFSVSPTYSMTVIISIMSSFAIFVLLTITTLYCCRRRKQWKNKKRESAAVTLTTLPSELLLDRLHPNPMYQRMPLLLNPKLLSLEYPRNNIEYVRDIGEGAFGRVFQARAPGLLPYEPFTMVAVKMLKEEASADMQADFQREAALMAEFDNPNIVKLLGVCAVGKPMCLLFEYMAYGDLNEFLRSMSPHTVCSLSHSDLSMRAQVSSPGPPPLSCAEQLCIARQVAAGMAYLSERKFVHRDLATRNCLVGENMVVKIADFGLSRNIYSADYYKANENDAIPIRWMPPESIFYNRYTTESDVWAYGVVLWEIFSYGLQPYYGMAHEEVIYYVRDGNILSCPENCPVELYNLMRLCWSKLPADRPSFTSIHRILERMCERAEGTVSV
Put plainly: Selectivity interaction (Kinase panel (Z-LYTE Assay)) EUB0001632a MUSK. The settings on record: at 10 µM.

The target of experiment [2] is LIM domain kinase 1 (Homo sapiens) (UniProt P53667). The experiment can be described thus: Selectivity interaction (KinomeScan (DiscoverX)) EUB0000695a LIMK1. The settings on record: at 100 nM.
The target of experiment [3] is 5'-AMP-activated protein kinase catalytic subunit alpha-2 (Homo sapiens) (UniProt P54646). The experiment can be described thus: Selectivity interaction (ActivX KiNativ screen (kinase selectivity in THP-1 cell lysates)) EUB0000639a PRKAA2. It counts as subcellular. The settings on record: lysate, at 0.2 µM.
Sequence of 5'-AMP-activated protein kinase catalytic subunit alpha-2 (Homo sapiens) (P54646 whole entry, looked up): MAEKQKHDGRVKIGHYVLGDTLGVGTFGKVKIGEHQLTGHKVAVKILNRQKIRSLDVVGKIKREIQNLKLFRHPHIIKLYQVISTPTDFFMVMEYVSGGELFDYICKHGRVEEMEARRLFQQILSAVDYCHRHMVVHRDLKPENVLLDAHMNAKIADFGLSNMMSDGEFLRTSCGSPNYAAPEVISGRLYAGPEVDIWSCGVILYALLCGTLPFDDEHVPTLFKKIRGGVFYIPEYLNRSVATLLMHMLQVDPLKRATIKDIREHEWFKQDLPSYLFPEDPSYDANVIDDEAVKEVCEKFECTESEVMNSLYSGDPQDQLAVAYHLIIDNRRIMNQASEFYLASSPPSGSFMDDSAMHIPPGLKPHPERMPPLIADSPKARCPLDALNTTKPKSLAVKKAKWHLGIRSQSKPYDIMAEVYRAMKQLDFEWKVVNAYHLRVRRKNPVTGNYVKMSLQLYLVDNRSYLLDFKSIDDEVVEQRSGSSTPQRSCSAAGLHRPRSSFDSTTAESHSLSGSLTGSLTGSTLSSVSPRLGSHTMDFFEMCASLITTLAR
In experiment [4] the target is Ribosomal protein S6 kinase alpha-2 (Homo sapiens) (UniProt Q15349). The experiment can be described thus: Selectivity interaction (ActivX KiNativ screen (kinase selectivity in THP-1 cell lysates)) EUB0000639a RPS6KA2. It counts as subcellular. The settings on record: lysate, at 0.04 µM.
Sequence of Ribosomal protein S6 kinase alpha-2 (Homo sapiens) (Q15349 whole entry): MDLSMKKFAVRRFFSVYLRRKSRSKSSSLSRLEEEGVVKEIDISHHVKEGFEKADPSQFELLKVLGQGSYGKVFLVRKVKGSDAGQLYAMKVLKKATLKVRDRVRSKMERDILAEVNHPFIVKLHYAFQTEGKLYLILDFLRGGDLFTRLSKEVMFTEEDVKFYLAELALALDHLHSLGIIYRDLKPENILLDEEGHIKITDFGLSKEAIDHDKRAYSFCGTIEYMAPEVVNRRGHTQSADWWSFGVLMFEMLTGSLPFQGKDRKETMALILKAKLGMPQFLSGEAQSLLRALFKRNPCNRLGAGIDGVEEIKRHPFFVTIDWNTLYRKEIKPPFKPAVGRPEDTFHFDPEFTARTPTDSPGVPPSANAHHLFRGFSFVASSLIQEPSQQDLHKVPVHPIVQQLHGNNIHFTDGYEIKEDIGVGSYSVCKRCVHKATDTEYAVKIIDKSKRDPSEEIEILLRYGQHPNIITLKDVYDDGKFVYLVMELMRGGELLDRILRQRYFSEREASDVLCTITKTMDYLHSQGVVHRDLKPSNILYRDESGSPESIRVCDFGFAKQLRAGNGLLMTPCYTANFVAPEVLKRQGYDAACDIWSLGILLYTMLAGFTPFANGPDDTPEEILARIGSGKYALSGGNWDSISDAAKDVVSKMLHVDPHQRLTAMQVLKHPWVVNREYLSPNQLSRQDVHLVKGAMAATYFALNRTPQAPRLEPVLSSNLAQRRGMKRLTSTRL
Experiment [5] deals with Serine/threonine-protein kinase SIK1 (Homo sapiens) (UniProt P57059). Put plainly: Selectivity interaction (Ambit KINOMEscan and KiNATiv profiling in Jurkat cells) EUB0000090b SIK1. It counts as cell-based. The settings on record: at 1 µM.
Experiment [6] has as its target Myosin light chain kinase 2, skeletal/cardiac muscle (Homo sapiens) (UniProt Q9H1R3). Put plainly: Selectivity interaction (KinomeScan (DiscoverX)) EUB0001049a MYLK2. The settings on record: at 1 µM.
Experiment [7] has as its target Tyrosine-protein kinase JAK2 (Homo sapiens, UniProt O60674). The experiment can be described thus: Selectivity interaction (Kinase panel (Carna Biosciences)) EUB0001542aTs JAK2. The settings on record: at 1 µM.
Experiment [8] deals with Tyrosine-protein kinase BTK (Homo sapiens, UniProt Q06187). The settings on record: at 1 µM.
Experiment [9] deals with ATPase family AAA domain-containing protein 2B (Homo sapiens) (UniProt Q9ULI0). The experiment can be described thus: Selectivity interaction (Bromodomain panel (DSF asssay)) EUB0000270b ATAD2B.
Sequence of ATPase family AAA domain-containing protein 2B (Homo sapiens) (Q9ULI0 whole entry, the tested form may be a part): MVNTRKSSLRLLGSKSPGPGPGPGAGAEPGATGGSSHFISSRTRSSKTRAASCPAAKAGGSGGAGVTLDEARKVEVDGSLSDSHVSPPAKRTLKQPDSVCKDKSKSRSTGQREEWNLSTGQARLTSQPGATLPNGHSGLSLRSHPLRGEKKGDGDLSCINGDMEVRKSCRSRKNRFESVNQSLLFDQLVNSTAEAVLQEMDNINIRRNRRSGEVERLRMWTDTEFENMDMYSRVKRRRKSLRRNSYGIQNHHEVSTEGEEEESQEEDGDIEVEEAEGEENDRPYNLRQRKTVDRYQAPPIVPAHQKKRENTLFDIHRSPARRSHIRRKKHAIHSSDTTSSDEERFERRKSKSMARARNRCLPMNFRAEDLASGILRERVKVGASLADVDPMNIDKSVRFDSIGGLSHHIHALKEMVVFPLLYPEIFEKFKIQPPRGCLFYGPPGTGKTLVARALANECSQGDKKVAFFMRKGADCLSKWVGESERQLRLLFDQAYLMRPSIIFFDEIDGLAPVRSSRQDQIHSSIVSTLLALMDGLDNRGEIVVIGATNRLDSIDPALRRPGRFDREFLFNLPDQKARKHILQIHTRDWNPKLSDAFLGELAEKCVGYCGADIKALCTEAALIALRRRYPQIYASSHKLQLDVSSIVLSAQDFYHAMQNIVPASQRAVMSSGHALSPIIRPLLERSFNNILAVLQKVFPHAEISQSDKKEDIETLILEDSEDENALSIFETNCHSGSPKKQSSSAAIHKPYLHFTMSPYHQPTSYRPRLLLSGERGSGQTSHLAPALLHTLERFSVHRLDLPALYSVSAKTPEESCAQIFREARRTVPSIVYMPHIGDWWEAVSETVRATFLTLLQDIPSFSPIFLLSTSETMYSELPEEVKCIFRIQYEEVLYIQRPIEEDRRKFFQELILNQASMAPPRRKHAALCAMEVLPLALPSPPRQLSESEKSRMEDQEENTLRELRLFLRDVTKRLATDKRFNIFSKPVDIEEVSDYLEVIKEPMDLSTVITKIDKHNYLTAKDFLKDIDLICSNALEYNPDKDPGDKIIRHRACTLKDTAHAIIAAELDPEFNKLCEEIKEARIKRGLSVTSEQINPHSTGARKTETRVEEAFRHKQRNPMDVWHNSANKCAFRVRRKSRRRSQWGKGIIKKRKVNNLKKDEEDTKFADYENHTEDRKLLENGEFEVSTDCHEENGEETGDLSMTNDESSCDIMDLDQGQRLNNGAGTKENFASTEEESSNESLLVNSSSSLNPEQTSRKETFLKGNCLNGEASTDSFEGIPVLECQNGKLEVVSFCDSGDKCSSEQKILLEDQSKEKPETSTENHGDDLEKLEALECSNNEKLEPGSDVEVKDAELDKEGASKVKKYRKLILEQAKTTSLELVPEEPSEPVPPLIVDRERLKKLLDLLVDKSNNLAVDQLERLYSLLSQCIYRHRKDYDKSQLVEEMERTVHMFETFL
For the next experiment, the target named is SRSF protein kinase 1 (Homo sapiens, UniProt Q96SB4). The experiment can be described thus: Selectivity interaction (KinomeScan (DiscoverX)) EUB0000092b SRPK1. The settings on record: at 10 µM.
Sequence of SRSF protein kinase 1 (Q96SB4 whole entry): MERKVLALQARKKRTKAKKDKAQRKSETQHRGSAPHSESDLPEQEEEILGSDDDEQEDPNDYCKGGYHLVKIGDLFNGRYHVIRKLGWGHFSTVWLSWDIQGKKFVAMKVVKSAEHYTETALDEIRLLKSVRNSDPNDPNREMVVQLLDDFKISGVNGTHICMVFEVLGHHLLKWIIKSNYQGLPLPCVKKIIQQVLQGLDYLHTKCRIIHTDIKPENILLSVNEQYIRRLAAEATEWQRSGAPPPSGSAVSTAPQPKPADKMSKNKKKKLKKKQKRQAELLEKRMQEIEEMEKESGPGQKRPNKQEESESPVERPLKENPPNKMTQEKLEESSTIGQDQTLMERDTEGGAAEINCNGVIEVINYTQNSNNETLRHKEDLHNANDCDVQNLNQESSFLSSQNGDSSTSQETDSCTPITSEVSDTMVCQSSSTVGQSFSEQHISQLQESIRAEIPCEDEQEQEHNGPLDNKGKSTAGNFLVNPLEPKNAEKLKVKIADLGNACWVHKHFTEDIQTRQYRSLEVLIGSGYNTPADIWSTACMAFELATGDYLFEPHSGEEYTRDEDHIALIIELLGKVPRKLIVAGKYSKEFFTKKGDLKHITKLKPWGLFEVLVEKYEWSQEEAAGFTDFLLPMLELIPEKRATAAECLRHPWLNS
For experiment [10], the target named is High affinity nerve growth factor receptor (Homo sapiens, UniProt P04629). Put plainly: Selectivity interaction (SelectScreen Kinase Profiling (Thermo Fisher Scientific)) EUB0001558a NTRK1. The settings on record: at 1 µM.
Sequence of High affinity nerve growth factor receptor (P04629 33-796 limits assumed): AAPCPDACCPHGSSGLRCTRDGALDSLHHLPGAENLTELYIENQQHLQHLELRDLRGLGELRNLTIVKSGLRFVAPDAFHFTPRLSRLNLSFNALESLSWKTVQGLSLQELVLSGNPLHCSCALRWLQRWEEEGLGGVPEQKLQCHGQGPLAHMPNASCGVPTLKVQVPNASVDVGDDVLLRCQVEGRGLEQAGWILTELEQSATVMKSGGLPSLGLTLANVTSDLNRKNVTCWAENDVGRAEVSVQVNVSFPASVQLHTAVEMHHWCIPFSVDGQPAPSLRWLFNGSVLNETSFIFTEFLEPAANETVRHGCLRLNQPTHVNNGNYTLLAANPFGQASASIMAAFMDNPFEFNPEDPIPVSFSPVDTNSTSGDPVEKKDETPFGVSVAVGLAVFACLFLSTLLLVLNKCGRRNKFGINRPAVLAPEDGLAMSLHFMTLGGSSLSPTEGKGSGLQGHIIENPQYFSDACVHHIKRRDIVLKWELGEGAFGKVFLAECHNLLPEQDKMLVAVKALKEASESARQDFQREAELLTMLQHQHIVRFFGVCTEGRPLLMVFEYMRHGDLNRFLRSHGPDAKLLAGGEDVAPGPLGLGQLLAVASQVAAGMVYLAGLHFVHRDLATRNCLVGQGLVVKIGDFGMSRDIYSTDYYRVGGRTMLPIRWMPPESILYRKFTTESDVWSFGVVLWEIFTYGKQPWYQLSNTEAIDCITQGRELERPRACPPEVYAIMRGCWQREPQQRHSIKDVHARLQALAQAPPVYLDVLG

Each structure is given as a SMILES string.

Sequence of Myosin light chain kinase 2, skeletal/cardiac muscle (Homo sapiens) (Q9H1R3 whole entry): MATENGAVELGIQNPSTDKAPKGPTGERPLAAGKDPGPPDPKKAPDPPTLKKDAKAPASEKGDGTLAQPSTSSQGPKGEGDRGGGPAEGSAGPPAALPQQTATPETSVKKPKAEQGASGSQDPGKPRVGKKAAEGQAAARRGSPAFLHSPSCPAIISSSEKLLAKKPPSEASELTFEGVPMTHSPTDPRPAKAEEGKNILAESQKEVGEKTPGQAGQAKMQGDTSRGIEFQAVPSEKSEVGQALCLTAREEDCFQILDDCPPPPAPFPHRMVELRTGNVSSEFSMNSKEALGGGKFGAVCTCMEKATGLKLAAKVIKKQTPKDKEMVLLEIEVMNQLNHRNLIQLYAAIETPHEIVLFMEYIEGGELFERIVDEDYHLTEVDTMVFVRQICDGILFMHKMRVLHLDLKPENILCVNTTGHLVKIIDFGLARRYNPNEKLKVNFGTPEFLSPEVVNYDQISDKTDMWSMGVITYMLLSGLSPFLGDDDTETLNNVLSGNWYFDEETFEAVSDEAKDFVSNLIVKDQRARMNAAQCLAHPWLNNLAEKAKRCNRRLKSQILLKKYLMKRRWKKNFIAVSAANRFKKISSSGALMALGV

As for `Cn1cc(-n2cnc3c(NCc4nc5cc(Cl)c(Cl)cc5[nH]4)nc(N4CCOCC4)nc32)cn1`, in experiment [1], the % of control came out at 12.7%.
For `Cc1cc(F)c(C(=O)Nc2cccc(-c3nncn3C(C)C)n2)cc1-n1cnc(C2CC2)c1`, the % of control in experiment [2] was found to be 99%.
`CC[C@@H]1[C@H](F)C(=O)N[C@@H]1COc1nccc2cc(C(N)=O)c(OC)cc12` [ZIMLOVISERTIB]: the % of inhibition in experiment [3] was -4.3%; in experiment [4], -7.6%.
As to `CN(C)C/C=C/C(=O)Nc1ccc(C(=O)N2CCCC(Nc3ncc(Cl)c(-c4c[nH]c5ccccc45)n3)C2)cc1` (stereo unspecified), the % of control in experiment [5] is 98%.
In experiment [6], `COc1cc(Nc2nc(C)cc(-c3cnn4nc(OC)ccc34)n2)cc(C(F)(F)F)c1` came in with a % of control of 100%.
Take `Cn1cc(Nc2nccc(N3CC4CCC(C3)N4C(=O)[C@@H]3CC3(F)F)n2)cn1`: the % of inhibition in experiment [7] amounted to 101%.
For `Cc1cc(-c2ccnc(Nc3cnn(C)c3)n2)ccc1CNC(=O)N1CC(OC(C)C)C1`, the % of control in experiment [8] amounted to 2.9%.
In [9], `Cc1cc(CN)cc(C)c1-c1ncn(C)c1-c1cncn1C` had a dTM of -1.47 K.
In turn, `CCC(=O)N1CCN(c2ccc(-n3c(=O)ccc4cnc5ccc(-c6cnc7ccccc7c6)cc5c43)cc2C(F)(F)F)CC1` displayed a % of control on SRSF protein kinase 1 of 100%.
On to `CC(C)(O)[C@H](F)CN1Cc2cc(NC(=O)c3cnn4cccnc34)c(N3CCOCC3)cc2C1=O`, for which, in experiment [10], the % of inhibition came to 71%.
